Test in one data set: not given
Details: not given
By logP is commonly meant the decadic logarithm of the partition coefficient of the neutral form, usually between octanol and water. `NC(=O)NS(=O)(=O)Cc1ccccc1` gave a logP of 0.28.
The same measure, in the same setting: the value for `CN(C)C(=O)NS(=O)(=O)Cc1ccccc1` was 0.54.
`CNC(=O)N(C)S(=O)(=O)c1cccnc1` gave a logP of 0.42.
The same measure, in the same setting: in the case of `CNC(=O)NS(=O)(=O)Cc1ccccc1` it was 0.54.
On the same count and under the same terms, in the case of `CNC(=O)N(C)S(=O)(=O)Cc1ccccc1` it was 1.18.

A further data set is described as follows: method code SF-AS, from Cloux, J.; Crommen, J.; Delarge, J.; Pirard, M.; Thunus, L. (1988). Attempts at calculating hydrophobic constant of the sulfonylurea group. J Pharm Belg, 43(3)141-151.
Details: not given
For `CCN(CC)C(=O)NS(=O)(=O)c1ccccc1`, the logP was 0.99.
For the molecule `NC(=O)NS(=O)(=O)c1ccccc1`, the logP was 0.28.
`CC(C)(C)NC(=O)NS(=O)(=O)c1ccccc1`: the lipophilicity (logP) is 1.95.
Same read-out and setting: in the case of `CN(C)C(=O)NS(=O)(=O)c1ccccc1` it was 0.28.
On the same count and under the same terms, the value for `CC(C)NC(=O)NS(=O)(=O)c1ccccc1` was 1.34.
Still for that read-out and setting: the value for `CCCNC(=O)NS(=O)(=O)c1ccccc1` was 1.44.
`CCNC(=O)NS(=O)(=O)c1ccccc1`: the logP was 0.9.

The same data set, now with this note: pH 3.5.
What is called logD is lipophilicity at a set pH, counting ionised and neutral species. Take `NC(=O)NS(=O)(=O)c1cccnc1`: the logD was -0.65.
For the molecule `CNC(=O)NS(=O)(=O)c1cccnc1`, the logD is -0.45.
